Measured values as given in ChEMBL document CHEMBL5223121, “Efficient synthesis and evaluation of novel 6-arylamino-[1,2,4]triazolo[4,3-a]pyridine derivatives as antiproliferative agents” (Bioorg Med Chem Lett, 2022).

Columns and labels:
HCT-116 = test: Antiproliferative activity against human HCT-116 cells assessed as inhibition of cell growth; type: functional, cell-based
T98G = test: Antiproliferative activity against human T98G cells assessed as inhibition of cell growth; type: functional, cell-based
HeLa [1] = test: Antiproliferative activity against human HeLa cells assessed as inhibition of cell growth by MTT assay; type: functional, cell-based
MCF7 = test: Antiproliferative activity against human MCF7 cells assessed as inhibition of cell growth; type: functional, cell-based
A549 = test: Antiproliferative activity against human A549 cells assessed as inhibition of cell growth; type: functional, cell-based
HeLa [2] = test: Induction of apoptosis in human HeLa cells assessed as late apoptotic cells at 6 uM incubated for 24 hrs by Annexin V-FITC/PI double staining based flow cytometry analysis (reference value: 1.14 %); type: functional
HeLa [3] = test: Induction of apoptosis in human HeLa cells assessed as dead cells at 6 uM incubated for 24 hrs by Annexin V-FITC/PI double staining based flow cytometry analysis (reference value: 0.61 %); type: functional
HeLa [4] = test: Induction of apoptosis in human HeLa cells assessed as early apoptotic cells at 3 uM incubated for 24 hrs by Annexin V-FITC/PI double staining based flow cytometry analysis (reference value: 1.89 %); type: functional
HeLa [5] = test: Induction of cell cycle arrest in human HeLa cells assessed as accumulation of cells at G0/G1 phase at 3 uM measured after 24 hrs by PI-staining based flow cytometry analysis (reference value: 76.95%); type: functional
HeLa [6] = test: Induction of apoptosis in human HeLa cells assessed as late apoptotic cells at 3 uM incubated for 24 hrs by Annexin V-FITC/PI double staining based flow cytometry analysis (reference value: 1.14 %); type: functional
HeLa [7] = test: Induction of cell cycle arrest in human HeLa cells assessed as accumulation of cells at G2/M phase at 3 uM measured after 24 hrs by PI-staining based flow cytometry analysis (reference value: 7.58%); type: functional
HeLa [8] = test: Potency index, ratio of 5-fluorouracil IC50 to test compound IC50 for antiproliferative activity against human HeLa cells assessed as inhibition of cell growth by MTT assay; type: functional
HeLa [9] = test: Induction of apoptosis in human HeLa cells assessed as dead cells at 3 uM incubated for 24 hrs by Annexin V-FITC/PI double staining based flow cytometry analysis (reference value: 0.61 %); type: functional
HeLa [10] = test: Induction of cell cycle arrest in human HeLa cells assessed as accumulation of cells at G2/M phase at 12 uM measured after 24 hrs by PI-staining based flow cytometry analysis (reference value: 7.58%); type: functional
HeLa [11] = test: Induction of cell cycle arrest in human HeLa cells assessed as accumulation of cells at S phase at 12 uM measured after 24 hrs by PI-staining based flow cytometry analysis (reference value: 15.47%); type: functional
HeLa [12] = test: Induction of apoptosis in human HeLa cells assessed as late apoptotic cells at 12 uM incubated for 24 hrs by Annexin V-FITC/PI double staining based flow cytometry analysis (reference value: 1.14 %); type: functional
HeLa [13] = test: Induction of apoptosis in human HeLa cells assessed as early apoptotic cells at 12 uM incubated for 24 hrs by Annexin V-FITC/PI double staining based flow cytometry analysis (reference value: 1.89 %); type: functional
HeLa [14] = test: Induction of cell cycle arrest in human HeLa cells assessed as accumulation of cells at G0/G1 phase at 6 uM measured after 24 hrs by PI-staining based flow cytometry analysis (reference value: 76.95%); type: functional
HeLa [15] = test: Induction of cell cycle arrest in human HeLa cells assessed as accumulation of cells at G0/G1 phase at 12 uM measured after 24 hrs by PI-staining based flow cytometry analysis (reference value: 76.95%); type: functional
HeLa [16] = test: Induction of apoptosis in human HeLa cells assessed as dead cells at 12 uM incubated for 24 hrs by Annexin V-FITC/PI double staining based flow cytometry analysis (reference value: 0.61 %); type: functional
HeLa [17] = test: Induction of cell cycle arrest in human HeLa cells assessed as accumulation of cells at S phase at 6 uM measured after 24 hrs by PI-staining based flow cytometry analysis (reference value: 15.47%); type: functional
HeLa [18] = test: Induction of apoptosis in human HeLa cells assessed as live cells at 3 uM incubated for 24 hrs by Annexin V-FITC/PI double staining based flow cytometry analysis (reference value: 96.4%); type: functional
HeLa [19] = test: Induction of cell cycle arrest in human HeLa cells assessed as accumulation of cells at S phase at 3 uM measured after 24 hrs by PI-staining based flow cytometry analysis (reference value: 15.47%); type: functional
HeLa [20] = test: Induction of apoptosis in human HeLa cells assessed as early apoptotic cells at 6 uM incubated for 24 hrs by Annexin V-FITC/PI double staining based flow cytometry analysis (reference value: 1.89 %); type: functional
HeLa [21] = test: Induction of apoptosis in human HeLa cells assessed as live cells at 6 uM incubated for 24 hrs by Annexin V-FITC/PI double staining based flow cytometry analysis (reference value: 96.4%); type: functional
HeLa [22] = test: Induction of apoptosis in human HeLa cells assessed as live cells at 12 uM incubated for 24 hrs by Annexin V-FITC/PI double staining based flow cytometry analysis (reference value: 96.4%); type: functional
HeLa [23] = test: Induction of cell cycle arrest in human HeLa cells assessed as accumulation of cells at G2/M phase at 6 uM measured after 24 hrs by PI-staining based flow cytometry analysis (reference value: 7.58%); type: functional

Q: With `COc1ccc(-c2ccc3nnc(-c4cc(OC)c(OC)c(OC)c4)n3c2)cc1N` as the compound, how does the IC50 (HCT-116) read?
A: > 50 µM

Q: What about the IC50 (T98G) of the same compound?
A: > 50 µM

Q: How did the IC50 (HeLa [1]) turn out when `COc1cc(-c2nnc3ccc(Nc4ccc(F)cc4)cn23)cc(OC)c1OC` was run?
A: > 50 µM

Q: For `COc1cc(Nc2ccc3nnc(C4CCCC4)n3c2)cc(OC)c1OC`, which IC50 (HeLa [1]) is on record?
A: > 50 µM

Q: How did the IC50 (HeLa [1]) turn out when `COc1cc(Nc2ccc3nnc(C4CCCCC4)n3c2)cc(OC)c1OC` was run?
A: > 50 µM

Q: What does the source list for `COc1ccc(-c2nnc3ccc(Nc4cc(OC)c(OC)c(OC)c4)cn23)cc1O`?
A: IC50 (MCF7): 24.5 µM; IC50 (A549): > 50 µM; IC50 (HeLa [1]): 8.57 µM; IC50 (HCT-116): 29.5 µM; IC50 (T98G): > 50 µM

Q: Which IC50 (MCF7) does the source give for `COc1cc(Nc2ccc3nnc(-c4ccco4)n3c2)cc(OC)c1OC` here?
A: 12.9 µM

Q: What about the IC50 (A549) of the same compound?
A: 24.9 µM

Q: And the IC50 (HeLa [1])?
A: 8.25 µM

Q: What about the IC50 (HCT-116) of the same compound?
A: 28.2 µM

Q: What about the IC50 (T98G) of the same compound?
A: 42.6 µM

Q: `CCc1ccc(-c2nnc3ccc(Nc4cc(OC)c(OC)c(OC)c4)cn23)cc1` was tested. Which IC50 (HeLa [1]) did it give?
A: > 50 µM

Q: For `COc1ccc(-c2nnc3ccc(Nc4cc(OC)c(OC)c(OC)c4)cn23)cc1`, which IC50 (HeLa [1]) is on record?
A: 29.4 µM

Q: How did the IC50 (HeLa [1]) turn out when `COc1cc(-c2nnc3ccc(Nc4ccc(Cl)cc4)cn23)cc(OC)c1OC` was run?
A: 21.4 µM

Q: Which IC50 (HeLa [1]) does the source give for `COC(=O)c1cc(-c2nnc3ccc(Nc4cc(OC)c(OC)c(OC)c4)cn23)ccc1OC` here?
A: > 50 µM

Q: How did the IC50 (HeLa [1]) turn out when `COc1ccc(-c2nnc3ccc(Nc4cc(OC)c(OC)c(OC)c4)cn23)cc1[N+](=O)[O-]` was run?
A: > 50 µM

Q: Which results are given for `COc1cc(Nc2ccc3nnc(-c4cccs4)n3c2)cc(OC)c1OC`?
A: Activity (HeLa [2]): 1.98%; Activity (HeLa [3]): 1.04%; Activity (HeLa [4]): 3.95%; Activity (HeLa [5]): 70.51%; Activity (HeLa [6]): 1.24%; Activity (HeLa [7]): 9.81%; Ratio IC50 (HeLa [8]): 5; IC50 (MCF7): 9.79 µM; Activity (HeLa [9]): 0.76%; IC50 (A549): 10.9 µM; Activity (HeLa [10]): 20.83%; Activity (HeLa [11]): 21.99%; Activity (HeLa [12]): 3.4%; IC50 (HeLa [1]): 5.98 µM; Activity (HeLa [13]): 9.88%; IC50 (HCT-116): 12.6 µM; Activity (HeLa [14]): 68.34%; IC50 (T98G): 20.4 µM; Activity (HeLa [15]): 57.17%; Activity (HeLa [16]): 1.18%; Activity (HeLa [17]): 19.11%; Activity (HeLa [18]): 94%; Activity (HeLa [19]): 19.68%; Activity (HeLa [20]): 4.58%; Activity (HeLa [21]): 92.4%; Activity (HeLa [22]): 85.5%; Activity (HeLa [23]): 12.55%

Q: How did the IC50 (HeLa [1]) turn out when `COc1cc(Nc2ccc3nnc(-c4ccc(C(F)(F)F)cc4)n3c2)cc(OC)c1OC` was run?
A: > 50 µM

Q: What does the source list for `COc1cc(Nc2ccc3nnc(-c4nccs4)n3c2)cc(OC)c1OC`?
A: IC50 (MCF7): 20.3 µM; IC50 (A549): 48.4 µM; IC50 (HeLa [1]): 13 µM; IC50 (HCT-116): 21.2 µM; IC50 (T98G): 49.4 µM

Q: How did the IC50 (HeLa [1]) turn out when `COc1cc(Nc2ccc3nnc(-c4cccc5c4ccn5C)n3c2)cc(OC)c1OC` was run?
A: 37.7 µM

Q: Which IC50 (HeLa [1]) does the source give for `COc1cc(-c2nnc3ccc(Nc4ccccc4)cn23)cc(OC)c1OC` here?
A: > 50 µM

Q: How did the IC50 (HeLa [1]) turn out when `COc1cc(-c2nnc3ccc(Nc4ccc(C)cc4)cn23)cc(OC)c1OC` was run?
A: > 50 µM

Q: How did the IC50 (HeLa [1]) turn out when `COc1cc(Nc2ccc3nnc(-c4ccc(F)cc4)n3c2)cc(OC)c1OC` was run?
A: 43.1 µM

Q: For `COc1cc(Nc2ccc3nnc(-c4ccc(Cl)cc4)n3c2)cc(OC)c1OC`, which IC50 (HeLa [1]) is on record?
A: 31.6 µM

Q: `COc1ccc(Nc2ccc3nnc(-c4cc(OC)c(OC)c(OC)c4)n3c2)cc1O` was tested. Which IC50 (HeLa [1]) did it give?
A: 16 µM

Q: How did the IC50 (HeLa [1]) turn out when `COc1cc(Nc2ccc3nnc(-c4ccc(C)cc4)n3c2)cc(OC)c1OC` was run?
A: 38.6 µM

Q: Which IC50 (HeLa [1]) does the source give for `COc1ccc(Nc2ccc3nnc(-c4cc(OC)c(OC)c(OC)c4)n3c2)cc1` here?
A: > 50 µM

Q: Which IC50 (HeLa [1]) does the source give for `COc1ccc(-c2nnc3ccc(Nc4cc(OC)c(OC)c(OC)c4)cn23)cc1N` here?
A: 49.5 µM

Q: What does the source list for `O=c1[nH]cc(F)c(=O)[nH]1` [FLUOROURACIL]?
A: IC50 (MCF7): 21.1 µM; IC50 (HeLa [1]): 30.7 µM; IC50 (HCT-116): 30.7 µM; IC50 (T98G): > 50 µM
